According to US11746100B2 (GLOBAL BLOOD THERAPEUTICS, INC., priority 2020, dated 2023):

target: T1, human ferroportin (Homo sapiens, UniProt Q9NP59); assay: Biological in-vitro ferroportin internalization assay (luciferase reporter); type: cell-based; conditions: average pEC50; stably-transfected CHO cell line expressing human ferroportin tagged to a luciferase reporter; 6 h incubation with test compound
T1 construct: luciferase reporter (read with the Nano-Glo Luciferase Assay System); expressed in transfected cells; host or cells: CHO cells, stably transfected, expression induced with doxycycline
T1 sequence (Q9NP59 1-571): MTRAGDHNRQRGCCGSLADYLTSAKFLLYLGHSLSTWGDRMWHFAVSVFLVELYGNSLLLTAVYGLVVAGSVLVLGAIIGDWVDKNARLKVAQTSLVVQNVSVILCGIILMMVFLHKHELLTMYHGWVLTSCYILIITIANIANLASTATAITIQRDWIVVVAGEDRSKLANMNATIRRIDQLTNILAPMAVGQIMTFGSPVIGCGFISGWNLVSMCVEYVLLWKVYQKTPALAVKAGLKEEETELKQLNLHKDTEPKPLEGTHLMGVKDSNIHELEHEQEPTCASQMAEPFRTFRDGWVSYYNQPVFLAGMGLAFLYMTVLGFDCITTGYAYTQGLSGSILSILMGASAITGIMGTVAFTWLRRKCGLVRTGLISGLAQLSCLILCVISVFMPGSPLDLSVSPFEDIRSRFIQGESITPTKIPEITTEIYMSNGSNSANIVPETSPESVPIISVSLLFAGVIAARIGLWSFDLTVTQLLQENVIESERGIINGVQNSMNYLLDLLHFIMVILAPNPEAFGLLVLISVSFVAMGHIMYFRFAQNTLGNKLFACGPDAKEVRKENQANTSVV
In short: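 Stably transfected CHO cells expressing luciferase-tagged human ferroportin, plated 24 h with ferric ammonium citrate and induced with doxycycline for 24 h. Compounds incubated 6 h, then luciferase activity measured by Nano-Glo; average pEC50 reported.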

Row | Structure (SMILES) | pEC50
1 | CN(CC(=O)N1CCOCC1)c1nc(-c2ccccn2)nc2c1CCC2 [Compound 86, 2-{methyl[2-(pyridin-2-yl)-5H,6H,7H-cyclopenta[d]pyrimidin-4-yl]amino}-1-(morpholin-4-yl)ethan-1-one] | 6.8
2 | CN(CC(=O)NC(C)(C)C)c1nc(-c2ccn(C)n2)nc2c1CCC2 [Compound 160, N-tert-butyl-2-{methyl[2-(1-methyl-1H-pyrazol-3-yl)-5H,6H,7H-cyclopenta[d]pyrimidin-4-yl]amino}acetamide] | 5.2
3 | COc1ccc(NC(=O)CN(C)c2nc(-c3cc(OC(F)F)ccn3)nc3c2CCC3)cn1 [Compound 225, 2-({2-[4-(difluoromethoxy)pyridin-2-yl]-5H,6H,7H-cyclopenta[d]pyrimidin-4-yl}(methyl)amino)-N-(6-methoxypyridin-3-yl)acetamide] | 6.8
4 | COc1ccc(NC(=O)[C@@H](C)N(C)c2nc(-c3cc(OC4COC4)ccn3)nc3c2CCC3)cn1 [Compound 312, (2R)-N-(6-methoxypyridin-3-yl)-2-[methyl({2-[4-(oxetan-3-yloxy)pyridin-2-yl]-5H,6H,7H-cyclopenta[d]pyrimidin-4-yl})amino]propanamide] | 7.7
5 | CN(CC(=O)NC(C)(C)C)c1nc(-c2cncn2CCO)nc2c1CCC2 [Compound 196, N-tert-butyl-2-({2-[1-(2-hydroxyethyl)-1H-imidazol-5-yl]-5H,6H,7H-cyclopenta[d]pyrimidin-4-yl}(methyl)amino)acetamide] | 5.6
6 | CN(CC(=O)Nc1nnc(N2CCCCCC2)s1)c1nc(-c2ccccn2)nc2c1CCC2 [Compound 70, N-[5-(azepan-1-yl)-1,3,4-thiadiazol-2-yl]-2-{methyl[2-(pyridin-2-yl)-5H,6H,7H-cyclopenta[d]pyrimidin-4-yl]amino}acetamide] | 7.4
7 | CN(CC(=O)NC(C)(C)C)c1nc(-c2cc(CO)ccn2)nc2c1CCC2 [Compound 41, N-tert-butyl-2-({2-[4-(hydroxymethyl)pyridin-2-yl]-5H,6H,7H-cyclopenta[d]pyrimidin-4-yl}(methyl)amino)acetamide] | 7.3
8 | CN(CC(=O)N1CCOCC1)c1nc(-c2cc(OCC(C)(C)O)ccn2)nc2c1CCC2 [Compound 399, 2-({2-[4-(2-hydroxy-2-methylpropoxy)pyridin-2-yl]-5H,6H,7H-cyclopenta[d]pyrimidin-4-yl}(methyl)amino)-1-(morpholin-4-yl)ethan-1-oneide] | 7.5
9 | CN(CC(=O)NC1CCOCC1)c1nc(-c2ccccn2)nc2c1CCC2 [Compound 79, 2-{methyl[2-(pyridin-2-yl)-5H,6H,7H-cyclopenta[d]pyrimidin-4-yl]amino}-N-(oxan-4-yl)acetamide] | 6.5
10 | CC1(C)CC[C@H](Nc2nc(-c3ccccn3)nc3c2CCC3)C(=O)N1 [Compound 56, (3S)-6,6-dimethyl-3-{[2-(pyridin-2-yl)-5H,6H,7H-cyclopenta[d]pyrimidin-4-yl]amino}piperidin-2-one] | 6.7
11 | COc1ccc2cnc(-c3nc4c(c(N(C)CC(=O)NC(C)(C)C)n3)CCC4)cc2c1 [Compound 261, N-tert-butyl-2-{[2-(6-methoxyisoquinolin-3-yl)-5H,6H,7H-cyclopenta[d]pyrimidin-4-yl](methyl)amino}acetamide] | 7.6
12 | CN(CC(=O)NC1(C)CCCCC1)c1nc(-c2ccccn2)nc2c1CCC2 [Compound 25, 2-{methyl[2-(pyridin-2-yl)-5H,6H,7H-cyclopenta[d]pyrimidin-4-yl]amino}-N-(1-methylcyclohexyl)acetamide] | 7.1
13 | Cc1ccnc(-c2nc3c(c(N4CCCO[C@@H]5CCC[C@@H]54)n2)CCC3)c1 [Compound 49, 2-{4-[(5aS,8aR)-octahydro-2H-cyclopenta[b][1,4]oxazepin-5-yl]-5H,6H,7H-cyclopenta[d]pyrimidin-2-yl}-4-methylpyridine] | 7.1
14 | Cn1cnc(-c2nc3c(c(N4CCCCCC4)n2)CCC3)c1 [Compound 97, 1-[2-(1-methyl-1H-imidazol-4-yl)-5H,6H,7H-cyclopenta[d]pyrimidin-4-yl]azepane] | 7.1
15 | COc1ccc(NC(=O)CN(C)c2nc(-c3cc4ccccc4cn3)nc3c2CCC3)nc1 [Compound 233, 2-{[2-(isoquinolin-3-yl)-5H,6H,7H-cyclopenta[d]pyrimidin-4-yl](methyl)amino}-N-(5-methoxypyridin-2-yl)acetamide] | 7.4
16 | c1ccc(-c2nc3c(c(N4CC5CC(C4)c4ccccc45)n2)CCC3)nc1 [Compound 1, 10-[2-(pyridin-2-yl)-5H,6H,7H-cyclopenta[d]pyrimidin-4-yl]-10-azatricyclo[6.3.1.0^{2,7}]dodeca-2,4,6-triene] | 6.9
17 | C[C@H](C(=O)Nc1cnn(C)c1)N(C)c1nc(-c2cc(OCCO)ccn2)nc2c1CCC2 [Compound 310, (2R)-2-({2-[4-(2-hydroxyethoxy)pyridin-2-yl]-5H,6H,7H-cyclopenta[d]pyrimidin-4-yl}(methyl)amino)-N-(1-methyl-1H-pyrazol-4-yl)propanamide] | 7.4
18 | COc1ccccc1NC(=O)CN(C)c1nc(-c2ccccn2)nc2c1CCC2 [Compound 15, N-(2-methoxyphenyl)-2-{methyl[2-(pyridin-2-yl)-5H,6H,7H-cyclopenta[d]pyrimidin-4-yl]amino}acetamide] | 6.9
19 | CC(C)NC(=O)CN(C)c1nc(-c2cc(OCC(C)(C)O)ccn2)nc2c1CCC2 [Compound 389, 2-({2-[4-(2-hydroxy-2-methylpropoxy)pyridin-2-yl]-5H,6H,7H-cyclopenta[d]pyrimidin-4-yl}(methyl)amino)-N-(propan-2-yl)acetamide] | 7.9
20 | CN(CC(=O)N1CCCCC1)c1nc(-c2cc(OCCO)ccn2)nc2c1C(C)(C)CC2 [Compound 362, 2-({2-[4-(2-hydroxyethoxy)pyridin-2-yl]-5,5-dimethyl-5H,6H,7H-cyclopenta[d]pyrimidin-4-yl}(methyl)amino)-1-(piperidin-1-yl)ethan-1-one] | 8
21 | CN(CC(=O)Nc1cnn(C)c1)c1nc(-c2cc3ccccc3cn2)nc2c1CCC2 [Compound 218, 2-{[2-(isoquinolin-3-yl)-5H,6H,7H-cyclopenta[d]pyrimidin-4-yl](methyl)amino}-N-(1-methyl-1H-pyrazol-4-yl)acetamide] | 7
22 | CN(CC(=O)NC1CCCCC1)c1nc(-c2cn(C)cn2)nc2c1CCC2 [Compound 142, N-cyclohexyl-2-{methyl[2-(1-methyl-1H-imidazol-4-yl)-5H,6H,7H-cyclopenta[d]pyrimidin-4-yl]amino}acetamide] | 7.4
23 | COc1ccc(NC(=O)CN(C)c2nc(-c3cc(OCCO)ccn3)nc3c2C(C)(C)CC3)cn1 [Compound 363, 2-({2-[4-(2-hydroxyethoxy)pyridin-2-yl]-5,5-dimethyl-5H,6H,7H-cyclopenta[d]pyrimidin-4-yl}(methyl)amino)-N-(6-methoxypyridin-3-yl)acetamide] | 8.3
24 | CN(CC(=O)N1CCCCC1)c1nc(-c2cc(O[C@@H]3CCOC3)ccn2)nc2c1CCC2 [Compound 342, 2-[methyl(2-{4-[(3R)-oxolan-3-yoxy]pyridin-2-yl}-5H,6H,7H-cyclopenta[d]pyrimidin-4-yl)amino]-1-(piperidin-1-yl)ethan-1-one] | 7.6
25 | CN(CC(=O)N1CCC(F)CC1)c1nc(-c2cc(OCCO)ccn2)nc2c1CCC2 [Compound 359, 1-(4-fluoropiperidin-1-yl)-2-({2-[4-(2-hydroxyethoxy)pyridin-2-yl]-5H,6H,7H-cyclopenta[d]pyrimidin-4-yl}(methyl)amino)ethan-1-one] | 7.5
26 | Cc1ccc(NC(=O)CN(C)c2nc(-c3ccc(F)cn3)nc3c2CCC3)cn1 [Compound 298, 2-{[2-(5-fluoropyridin-2-yl)-5H,6H,7H-cyclopenta[d]pyrimidin-4-yl](methyl)amino}-N-(6-methylpyridin-3-yl)acetamide] | 6.1
27 | CN(CC(=O)NC(C)(C)C)c1nc(-c2cc3scnc3cn2)nc2c1CCC2 [Compound 301, N-tert-butyl-2-[methyl(2-{[1,3]thiazolo[4,5-c]pyridin-6-yl}-5H,6H,7H-cyclopenta[d]pyrimidin-4-yl)amino]acetamide] | 6.9
28 | CN1CC[C@@H](Oc2ccnc(-c3nc4c(c(N(C)CC(=O)NC5(C(F)(F)F)CC5)n3)CCC4)c2)C1 [Compound 487, 2-{methyl[2-(4-{[(3R)-1-methylpyrrolidin-3-yl]oxy}pyridin-2-yl)-5H,6H,7H-cyclopenta[d]pyrimidin-4-yl]amino}-N-[1-(trifluoromethyl)cyclopropyl]acetamide] | 7.5
29 | COc1ccc(NC(=O)CN(C)c2nc(-c3cc4ncsc4cn3)nc3c2CCC3)cn1 [Compound 329, N-(6-methoxypyridin-3-yl)-2-[methyl(2-{[1,3]thiazolo[5,4-c]pyridin-6-yl}-5H,6H,7H-cyclopenta[d]pyrimidin-4-yl)amino]acetamide] | 6.8
30 | COc1ccnc(-c2nc3c(c(N(C)CC(=O)Nc4ccc(OC)nc4)n2)CCC3)c1 [Compound 151, 2-{[2-(4-methoxypyridin-2-yl)-5H,6H,7H-cyclopenta[d]pyrimidin-4-yl](methyl)amino}-N-(6-methoxypyridin-3-yl)acetamide] | 8.1
